{"source": "patent US20100075893A1", "about": "“PREPARATION OF A PHARMACEUTICAL COMPOSITION FOR INCREASING BONE MINERAL DENSITY” (priority 2008, published 2010)", "key": {"[1]": {"test_system": "C57B1/6J females", "test": "CART slow release formulation vs. daily CART injections, bone mineral density in mice (in vivo micro-CT, distal femur)", "details": "daily s.c. injections of 2 μg in 0.9% NaCl, 30 days", "experimental": "In this experiment the effectiveness of CART peptide to improve bone mineral density via a slow release formulation was compared with daily injections of CART. The experiment was conducted in 12 weeks old C57B1/6J females and consisted of four experimental groups (n=5 per group). In the first group of mice 2 placebo slow release pellets (SX-999, 60 day pellets, Innovative Research of America, Sarasota, Fla.) were implanted subcutaneously in the neck. In the second group 2 SX-999 slow release pellets containing 50 μg rat CART55-102 (Phoenix Pharmaceuticals, Inc. Belmont, Calif.) each, were implanted subcutaneously in the neck. The other two groups received daily s.c. injections with either vehicle (0.9% NaCl) or with 2 μg rat CART55-102 peptide in 0.9% NaCl. Mice were sedated with injection anaesthetics (Hypnorm (VetaPharma, Leeds, UK)/Dormicum (Roche, Mijdrecht, The Netherlands)) and bone density was determined in the distal femur by an in vivo micro-CT measurement (Skyscan1076 micro CT scanner, Skyscan, Belgium) at T=0 and at T=30 days. Blood was collected weekly by orbita puncture to determine serum CART levels. BMD (g/cm^3) was expressed as mean±SD of the individual data. Statistical analysis was performed using the Student T-test (two-tailed). P<0.05 was considered as significant."}, "[2]": {"test_system": "C57B1/6J females", "test": "Bone mineral density increase in mice by slow release CART treatment (in vivo micro-CT, distal femur)", "experimental": "In this experiment mice were treated with 3 different concentrations of CART peptide. The experiment was conducted in 12 weeks old C57B1/6J females and consisted of four experimental groups (n=5 per group). The first group of mice received placebo slow release pellets (SX-999, 60 day slow release pellets, Innovative Research of America, Sarasota, Fla.). The other three groups were treated with SX-999 slow release pellets containing either 20 μg, 50 μg or 100 μg (2×50 μg) rat CART 55-102 peptide (rCART) (Phoenix Pharmaceuticals, Inc. Belmont, Calif.). Mice were sedated with injection anaesthetics (Hypnorm (VetaPharma, Leeds, UK)/Dormicum (Roche, Mijdrecht, The Netherlands)) and the pellets were implanted subcutaneously in the neck. Bone architecture and density was determined at the distal femur at T=0 by an in vivo micro-CT measurement (Skyscan1076 micro-CT scanner, Skyscan, Kontich, Belgium). Scans were performed at 9 μm resolution. Trabecular bone analysis was performed on a 2 mm slice 150 μm proximal to the distal growth plate of the femur. In vivo micro-CT measurements were repeated at day 28 and day 60. The BMD value of the placebo group at T=0, T=28 and T=60 days was set at 100% and the BMD values of the 20 μg, 50 μg and 100 μg (2×50 μg) CART treated groups were calculated relatively to the placebo group. Values are expressed as mean±SD of the individual data. For statistical analysis the treatment groups were compared with the placebo group of the corresponding time point in a standard Student T-test (two-tailed). P<0.05 was considered as significant."}, "[3]": {"test_system": "bovine granulosa cells", "test": "CART induced suppression of FSH-induced 17β-estradiol production in bovine granulosa cells", "assay_type": "cell-based", "details": "1 μM CART peptide, 7 days culture", "experimental": "Ovaries from double muscled cows were obtained at a local abattoir and granulosa cells were collected from 3- to 5-mm follicles at random stages of the estrus cycle. Follicles were placed in culture medium (M505 medium (Gibco Invitrogen, Carlsbad, Calif., USA) supplemented with antibiotics (100 IU/ml penicillin and 0.1 mg/ml streptomycin (Invitrogen, Carlsbad, Calif., USA), 10 ng/mL insulin (Schering-Plough, Oss, The Netherlands), 4 ng/mL sodium selenite (Sigma Aldrich, St. Louis, Mo., USA), 5 μg/mL apo-transferrin (Sigma Aldrich, St. Louis, Mo., USA) and 10^−7M androstenedione (Org 6, Schering-Plough, Oss, The Netherlands)) at 37° C. Follicles were ruptured with a needle and the cells were passed through a cell strainer (70 μm nylon, Becton Dickinson, Bedford, USA). Cells were centrifuged for 10 min at 340×g and resuspended in culture medium. Cells (1×10^5 viable cells/well) were cultured in 96 wells plate for 7 days at 37° C. in a humidified atmosphere (5% CO2, 95% air) in the presence of 0, 20, 100 or 300 mUnits FSH (Org 32489, Schering-Plough, Oss, The Netherlands) in combination with […], 10^−7, […], 10^−9, 10^−10, 10^−11 or 10^−12M rat CART 55-102 (Phoenix Pharmaceuticals Inc., Belmont, Calif., USA). […] After 7 days 17β-estradiol levels were determined in the culture medium using a 17β-estradiol ELISA (Diagnostic Systems Laboratories Inc., Marburg, Germany)."}}, "note": "Positions of bridges follow the written chain, without caps; N, C: chain ends. No end group written: not given here."}
{"substance": "Ile-Pro-Ile-Tyr-Glu-Lys-Lys-Tyr-Gly-Gln-Val-Pro-Met-Cys-Asp-Ala-Gly-Glu-Gln-Cys-Ala-Val-Arg-Lys-Gly-Ala-Arg-Ile-Gly-Lys-Leu-Cys-Asp-Cys-Pro-Arg-Gly-Thr-Ser-Cys-Asn-Ser-Phe-Leu-Leu-Lys-Cys-Leu (IPIYEKKYGQVPMCDAGEQCAVRKGARIGKLCDCPRGTSCNSFLLKCL; disulfide 14-32, 20-40, 34-47; ends not checked) [rat CART 55-102, rat CART 55-102 peptide (rCART) (Phoenix Pharmaceuticals, Inc.)]", "values": [{"measurement": "increase in BMD", "setting": "[1]", "value": "did not show an increase in BMD"}, {"measurement": "increase in trabecular bone mineral density (BMD) as compared to the placebo group", "setting": "[2]; 50 μg rCART in SX-999 slow release pellet s.c., after 60 days", "value": "40-50%"}, {"measurement": "increase in trabecular bone mineral density (BMD) as compared to the placebo group", "setting": "[2]; 100 μg (2×50 μg) rCART in SX-999 slow release pellets s.c., after 28 days", "value": "50-60%"}, {"measurement": "increase in trabecular bone mineral density (BMD) as compared to the placebo group", "setting": "[2]; 100 μg (2×50 μg) rCART in SX-999 slow release pellets s.c., after 28 days, listed as CART peptide", "value": 50, "unit": "%"}, {"measurement": "increase in trabecular bone mineral density (BMD) as compared to the placebo group", "setting": "[2]; 100 μg (2×50 μg) rCART in SX-999 slow release pellets s.c., after 60 days", "value": 80, "unit": "%"}, {"measurement": "suppression of FSH-induced 17β-estradiol production", "setting": "[3]; 100 mUnits FSH", "value": 1.5, "unit": "fold"}, {"measurement": "suppression of FSH-induced 17β-estradiol production", "setting": "[3]; 300 mUnits FSH", "value": 3, "unit": "fold"}]}
